Patent publication US9927424B2, “Assays for identifying compounds that modulate bitter taste” (Chromocell Corporation, priority 2013, dated 2018)

Legend:
TAS2R9 [1] = biological target: T1, TAS2R9 (Homo sapiens, UniProt Q9NYW1); test: Calcium fluorescence functional assay, TAS2R9 cell line with mouse Gα15; type: cell-based; conditions: 20 mM tastant; change in intracellular calcium
T1 construct: expressed in transfected cells
T1 sequence (Q9NYW1 1-312): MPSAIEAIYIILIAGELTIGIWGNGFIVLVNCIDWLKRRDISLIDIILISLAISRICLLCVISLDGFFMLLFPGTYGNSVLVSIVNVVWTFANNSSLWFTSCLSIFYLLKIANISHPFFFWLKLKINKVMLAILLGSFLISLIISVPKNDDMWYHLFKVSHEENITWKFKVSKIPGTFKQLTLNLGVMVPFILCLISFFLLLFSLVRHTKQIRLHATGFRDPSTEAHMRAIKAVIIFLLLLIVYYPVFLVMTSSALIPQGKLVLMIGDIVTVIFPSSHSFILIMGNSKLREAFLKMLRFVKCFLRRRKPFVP
Protocol: (§1) A panel of cell lines expressing eight specific bitter taste receptors, a subset of the panel of twenty-five bitter receptors described in International Patent Application Publication WO 2010/088633 (see, e.g., Example 26), was used for the purpose of these analyses. Accordingly, each cell line of the panel expressed a human bitter taste receptor and mouse Gα15 signaling protein.
(§2) Each of the Examples below utilized the following functional assay: • Day 1: Stable cell lines were seeded onto black wall/clear bottom 96-well, plates (e.g., Corning, 3904). Approximately 40K cells were added per well and incubated at 37° C., 5% CO2 overnight in cell growth media (DMEM (Sigma, D5796) supplemented with 10% Fetal Bovine Serum (Sigma, 5178), 2 mM Glutamine (Sigma, G7513)). • Day 2: Growth media was discarded and cells were incubated at 37° C., 5% CO2 for 60 minutes in 100 ul of load solution containing 1× Ca-3 dye (Molecular Devices, R8090), 1% DMSO in buffer containing 130 mM NaCl, 2 mM CaCl2, 5 mM KCl, 1.2 mM MgCl2, 10 mM HEPES and 10 mM Glucose (pH 7.0). Probenecid was not included in the load solution. • Functional assay: After dye loading, cell plates were placed in a fluorescent plate reader (e.g., FDSS6000 (Hamamatsu, Japan)) and receptor stimulation was measured by adding 50 ul of 3× concentrated ligand/agonist stock. Fluorescence was monitored continuously for 10 s before agonist addition and for 100-250 s after stimulation with agonist.
(§3) Receptor Activation is defined as follows: • % Activation=[((Maximum signal fluorescence−Minimum signal fluorescence)−(Maximum control fluorescence−Minimum control fluorescence))/(Maximum buffer fluorescence−Minimum buffer fluorescence)]*100 • Functional Response=[(Maximum signal fluorescence−Minimum signal fluorescence)−(Maximum control fluorescence−Minimum control fluorescence)] • Signal fluorescence: refers to the change in fluorescence seen with addition of ligand • Control fluorescence: refers to the change in fluorescence seen with addition of buffer (negative control) • Calcium signals from ligand and control were normalized to the basal fluorescence of the cells prior to the stimulation.
(§4) A concentration analysis was performed and EC50 values were calculated by nonlinear regression using the formula: Y=Bottom+(Top−Bottom)/(1+10^((Log EC50−X)*Hill Slope)), X=log of dose or concentration, Y=Response (increasing as X increases), Top=maximum signal, Bottom=minimum signal. EC50 (half maximal effective concentration) refers to the molar concentration of the agonist which produces 50% of the maximum possible effective response from that agonist.

TAS2R4 [2] = biological target: T2, TAS2R4 (Homo sapiens, UniProt Q9NYW5); test: Calcium fluorescence functional assay, TAS2R4 cell line with mouse Gα15; type: cell-based; conditions: 20 mM tastant; change in intracellular calcium
T2 construct: expressed in transfected cells
T2 sequence (Q9NYW5 1-299): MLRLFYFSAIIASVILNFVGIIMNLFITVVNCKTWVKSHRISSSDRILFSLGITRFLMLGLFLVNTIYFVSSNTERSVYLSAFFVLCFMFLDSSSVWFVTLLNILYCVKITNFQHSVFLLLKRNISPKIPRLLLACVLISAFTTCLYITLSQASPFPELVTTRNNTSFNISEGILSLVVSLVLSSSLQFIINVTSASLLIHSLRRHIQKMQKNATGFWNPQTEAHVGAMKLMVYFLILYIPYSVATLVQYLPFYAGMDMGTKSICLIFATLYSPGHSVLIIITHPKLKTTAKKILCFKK
Protocol: as §1, §2, §3, §4

TAS2R14 [3] = biological target: T3, TAS2R14 (Homo sapiens, UniProt Q9NYV8); test: Calcium fluorescence functional assay, TAS2R14 cell line with mouse Gα15; type: cell-based; conditions: 20 mM tastant; change in intracellular calcium
T3 construct: expressed in transfected cells
T3 sequence (Q9NYV8 1-317): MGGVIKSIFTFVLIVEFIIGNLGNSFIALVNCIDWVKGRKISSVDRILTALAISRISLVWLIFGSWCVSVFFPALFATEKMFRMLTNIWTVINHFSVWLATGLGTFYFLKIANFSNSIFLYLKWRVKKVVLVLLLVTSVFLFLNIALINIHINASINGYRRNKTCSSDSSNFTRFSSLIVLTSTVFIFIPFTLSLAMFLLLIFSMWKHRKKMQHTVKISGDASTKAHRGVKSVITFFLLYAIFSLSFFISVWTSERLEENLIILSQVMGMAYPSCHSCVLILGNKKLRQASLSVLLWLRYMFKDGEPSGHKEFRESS
Protocol: as §1, §2, §3, §4

TAS2R44 [4] = biological target: T4, TAS2R44 (Homo sapiens, UniProt P59538); test: Calcium fluorescence functional assay, TAS2R44 cell line with mouse Gα15; type: cell-based; conditions: 20 mM tastant; change in intracellular calcium
T4 construct: expressed in transfected cells
T4 sequence (P59538 1-309): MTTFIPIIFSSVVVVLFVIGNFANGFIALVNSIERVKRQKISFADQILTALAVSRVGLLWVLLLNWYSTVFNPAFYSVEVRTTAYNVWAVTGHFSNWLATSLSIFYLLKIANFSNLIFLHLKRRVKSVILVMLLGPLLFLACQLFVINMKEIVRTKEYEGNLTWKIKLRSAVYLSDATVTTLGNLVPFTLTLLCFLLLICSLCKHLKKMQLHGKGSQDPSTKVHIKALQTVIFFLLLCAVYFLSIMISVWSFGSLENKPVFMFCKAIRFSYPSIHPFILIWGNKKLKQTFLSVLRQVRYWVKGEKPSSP
Protocol: as §1, §2, §3, §4

TAS2R13 [5] = biological target: T5, TAS2R13 (Homo sapiens, UniProt Q9NYV9); test: Calcium fluorescence functional assay, TAS2R13 cell line with mouse Gα15; type: cell-based; conditions: 20 mM tastant; change in intracellular calcium
T5 construct: expressed in transfected cells
T5 sequence (Q9NYV9 1-303): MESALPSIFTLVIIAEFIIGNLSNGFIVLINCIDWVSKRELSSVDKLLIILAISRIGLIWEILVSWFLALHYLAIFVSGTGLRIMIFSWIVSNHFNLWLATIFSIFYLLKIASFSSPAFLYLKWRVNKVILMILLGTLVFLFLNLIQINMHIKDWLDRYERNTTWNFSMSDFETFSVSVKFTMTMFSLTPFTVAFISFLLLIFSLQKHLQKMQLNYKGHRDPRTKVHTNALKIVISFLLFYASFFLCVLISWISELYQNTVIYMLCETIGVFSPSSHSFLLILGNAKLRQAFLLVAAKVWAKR
Protocol: as §1, §2, §3, §4

TAS2R16 = TAS2R16 (Homo sapiens, UniProt Q9NYV7); conditions: PCT/US12/61400; cited from earlier work
TAS2R16, sequence (Q9NYV7 whole entry): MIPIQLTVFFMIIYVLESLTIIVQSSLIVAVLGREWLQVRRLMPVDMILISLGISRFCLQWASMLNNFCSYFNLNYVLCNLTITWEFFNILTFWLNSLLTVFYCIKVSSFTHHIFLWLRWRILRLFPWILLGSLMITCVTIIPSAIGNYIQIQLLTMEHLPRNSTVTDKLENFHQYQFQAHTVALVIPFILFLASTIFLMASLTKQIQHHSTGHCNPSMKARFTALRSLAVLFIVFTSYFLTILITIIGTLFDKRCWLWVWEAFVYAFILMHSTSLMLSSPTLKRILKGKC

TAS2R39 = biological target: T6, TAS2R39 (Homo sapiens, UniProt P59534); test: Calcium fluorescence functional assay, TAS2R39 cell line with mouse Gα15; type: cell-based
T6 construct: expressed in transfected cells
T6 sequence (P59534 1-338): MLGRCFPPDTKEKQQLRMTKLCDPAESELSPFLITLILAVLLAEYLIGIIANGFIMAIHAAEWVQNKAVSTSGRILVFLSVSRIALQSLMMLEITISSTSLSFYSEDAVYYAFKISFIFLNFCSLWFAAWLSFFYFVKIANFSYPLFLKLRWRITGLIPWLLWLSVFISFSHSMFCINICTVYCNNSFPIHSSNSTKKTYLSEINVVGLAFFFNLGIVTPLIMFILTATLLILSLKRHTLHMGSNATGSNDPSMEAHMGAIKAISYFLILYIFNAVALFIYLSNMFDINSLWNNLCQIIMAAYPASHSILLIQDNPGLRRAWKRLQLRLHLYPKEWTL
Protocol: as §1, §2, §3, §4

TAS2R44 [6] = biological target: T4, TAS2R44; conditions: PCT/US12/61400; cited from earlier work
TAS2R38 (PAV) = biological target: T7, TAS2R38 (PAV) (Homo sapiens, UniProt P59533, A49P/I296V); test: Calcium fluorescence functional assay, TAS2R38 (PAV) cell line with mouse Gα15; type: cell-based
T7 construct: expressed in transfected cells
T7 sequence (P59533 1-333 A49P/I296V): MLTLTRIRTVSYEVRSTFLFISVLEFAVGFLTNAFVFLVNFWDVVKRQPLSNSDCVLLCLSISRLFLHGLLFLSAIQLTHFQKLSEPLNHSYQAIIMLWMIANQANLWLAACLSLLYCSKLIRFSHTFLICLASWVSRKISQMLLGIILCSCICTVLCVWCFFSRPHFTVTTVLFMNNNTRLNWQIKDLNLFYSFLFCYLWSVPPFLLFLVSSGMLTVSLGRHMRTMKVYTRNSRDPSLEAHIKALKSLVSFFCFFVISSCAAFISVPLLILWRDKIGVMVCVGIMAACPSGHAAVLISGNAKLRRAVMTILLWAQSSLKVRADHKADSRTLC
Protocol: as §1, §2, §3, §4

TAS2R9 [7] = biological target: T1, TAS2R9; conditions: PCT/US12/61400; cited from earlier work
TAS2R14 [8] = biological target: T3, TAS2R14; conditions: PCT/US12/61400; cited from earlier work
TAS2R13 [9] = biological target: T5, TAS2R13; conditions: PCT/US12/61400; cited from earlier work
TAS2R4 [10] = biological target: T2, TAS2R4; conditions: PCT/US12/61400; cited from earlier work
TAS2R1 = TAS2R1 (Homo sapiens, UniProt Q9NYW7); conditions: PCT/US12/61400; cited from earlier work
TAS2R1, sequence (Q9NYW7 whole entry): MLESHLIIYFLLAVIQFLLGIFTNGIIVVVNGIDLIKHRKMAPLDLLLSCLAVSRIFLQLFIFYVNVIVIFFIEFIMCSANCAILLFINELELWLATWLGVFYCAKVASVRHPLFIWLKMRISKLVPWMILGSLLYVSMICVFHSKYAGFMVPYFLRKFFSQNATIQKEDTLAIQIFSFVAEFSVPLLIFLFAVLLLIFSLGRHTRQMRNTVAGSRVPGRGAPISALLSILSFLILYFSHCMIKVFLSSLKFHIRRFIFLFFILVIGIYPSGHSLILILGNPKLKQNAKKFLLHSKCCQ

[11] = 20 mM tastant, change in intracellular calcium
[12] = approximately, increasing concentrations of tastant

CC(O)C(=O)[O-].[K+] (stereo not shown) [potassium lactate]
TAS2R9 bitter receptor activity (functional response) (TAS2R9 [1]): activate
TAS2R4 bitter receptor activity (functional response) (TAS2R4 [2]): activate
TAS2R14 bitter receptor activity (functional response) (TAS2R14 [3]): activate
TAS2R44 bitter receptor activity (functional response) (TAS2R44 [4]): activate
TAS2R13 bitter receptor activity (functional response) (TAS2R13 [5]): activate

CC1=CC(=O)NS(=O)(=O)O1 [Acesulfame K]
TAS2R16 response to stimulation, previously shown (TAS2R16): specifically respond
TAS2R39 bitter receptor activity (functional response) (TAS2R39; [11]): strongly and specifically responded
EC50 (TAS2R39; [12]): 5 to 10 mM
TAS2R44 response to stimulation, previously shown (TAS2R44 [6]): specifically respond
TAS2R38 (PAV) bitter receptor activity (functional response) (TAS2R38 (PAV); [11]): strongly and specifically responded
EC50 (TAS2R38 (PAV); [12]): 5 to 10 mM
TAS2R9 response to stimulation, previously shown (TAS2R9 [7]): specifically respond
TAS2R14 response to stimulation, previously shown (TAS2R14 [8]): specifically respond
TAS2R13 response to stimulation, previously shown (TAS2R13 [9]): specifically respond
TAS2R4 response to stimulation, previously shown (TAS2R4 [10]): specifically respond
TAS2R1 response to stimulation, previously shown (TAS2R1): specifically respond
